Values joined by “and” are separate entries in the source; they are usually repeats but may differ in a detail not shown here. Equal values may be shown once. Read-outs that look alike come from different tables or passages of the source.
What was measured:
[1] = PK in rats; type: in vivo; conditions: male, Wistar Hannover, plasma, rat
Procedure: All animal procedures were conducted according to the highest ethical standards using procedures approved by the Institutional Animal Care and Use Committee of Merck & Co., Rahway, NJ, USA (APS 2016-600774-FEB). Fasted male Wistar Hannover rats (n = 3 in each arm) weighing approximately 325 g were used for the PK studies. All blood samples were collected in EDTA-coated tubes at the time points specified below. For the IV arm of the study, a cannula was implanted in the jugular vein for dose administration and blood sampling. […] For the oral arm of the study, a solution of MK-8527 was administered by oral gavage at 2 mg/kg in 0.5% methylcellulose in water to fasted rats. […] The concentrations of MK-8527 in plasma were determined by LC–MS/MS assays following a protein precipitation step. Aliquots (50 µL) of plasma were precipitated by addition of 150 µL of acetonitrile solution-containing internal standard (IS), followed by centrifugation at 3,000 rpm for 10 min. A 75-µL aliquot of the supernatant was transferred into a 96-well plate, and 5 µL of each sample was used for analysis. LC–MS/MS analysis was performed on a Transcend LC system with HTS PAL CTC autosampler (Thermo Fisher Scientific, Waltham, MA, USA) interfaced to an API-5000 mass spectrometer using the turbo ion spray interface (Sciex, Framingham, MA, USA). Separation of MK-8527 was achieved on an Xselect HSS XP T3 column (50 × 2.1 mm, 2.5 µm; […] The chromatography for plasma samples was run using gradient elution as follows: the column was equilibrated with 100% A. […] The total run time was 4.15 min. Quantification was done by monitoring the transition of m/z 309 to m/z 169 or 133 for MK-8527. The method was linear across a concentration range of 2–10,000 ng/mL in plasma.

[2] = tested on: HIV-1; test: microbe, parasite or virus in culture; conditions: Human immunodeficiency virus 1, PBMC
Procedure: IC50 values were determined, and a persistence ratio was calculated for each compound. GFP, green fluorescent protein; hpi, hours post-infection; IC50, half maximal inhibitory concentration.
Assay media in each well were then evacuated and the cells resuspended using the gentle setting on the BlueWasher (BlueCatBio; Lebanon, NH, USA). Centrifugation and wash steps were repeated to ensure removal of extracellular compound.
MT4-GFP cells were infected with WT R8 virus, and PBMCs were infected with pNLG1-P2A-GFP. […] IC50 values were determined by nonlinear 4-parameter curve fitting of the data. A persistence ratio was calculated for each compound by dividing the IC50 from variable B (IC50B) by the IC50 from variable A (IC50A).

[3] = PK in rhesus monkeys (plasma); type: in vivo
Procedure: For the IV arm of the study, MK-8527 was administered as a bolus via the cephalic vein at 0.5 mg/kg in 30% Captisol (Ligand Pharmaceuticals, Lawrence, KS, USA). […] After the 6-h time point, they were returned to their cages and placed in a bleed chair for the subsequent time points. No anesthesia was used. As enrichment, animals were pair housed with conspecifics in cages with […]. […] Animals were fed certified primate diet (LabDiet 5048) and given a vitamin C supplement daily. In addition, animals received rotational fruit and vegetables as well as a foraging mix daily. All blood samples were centrifuged at 2,000g for 10 min, and the supernatant plasma samples were removed and stored at -70 °C until further analysis. The concentrations of MK-8527 in plasma were determined by LC-MS/MS assays following a protein precipitation step. Aliquots (50 μL) of plasma were precipitated by addition of 150 μL of acetonitrile solution-containing internal standard (IS), followed by centrifugation at 3,000 rpm for 10 min. A 75-μL aliquot of the supernatant was transferred into a 96-well plate, and 5 μL of each sample was used for analysis. LC-MS/MS analysis was performed on a Transcend LC system with HTS PAL CTC autosampler (Thermo Fisher Scientific, Waltham, MA, USA) interfaced to an API-5000 mass spectrometer using the turbo ion spray interface (Sciex, Framingham, MA, USA). Separation of MK-8527 was achieved on an Xselect HSS XP T3 column (50 × 2.1 mm, 2.5 μm; […] The chromatography for plasma samples was run using gradient elution as follows: the column was equilibrated with 100% A. […] The total run time was 4.15 min. Quantification was done by monitoring the transition of m/z 309 to m/z 169 or 133 for MK-8527. The method was linear across a concentration range of 2-10,000 ng/mL in plasma.

With `C#C[C@]1(CO)O[C@@H](n2ccc3c(N)nc(Cl)nc32)C[C@@H]1O` [Compound 12, (2R,3S,5R)-5-(4-amino-2-chloro-7H-pyrrolo[2,3-d]pyrimidin-7-yl)-2-ethynyl-2-(hydroxymethyl)tetrahydrofuran-3-ol] the clearance ([1]; IV 1.0 mg/kg, read-out: CLp) was 18.1 ± 3.3 mL/min/kg, the Vd ([1]; IV 1.0 mg/kg, read-out: Vdss) was 2 ± 0.3 L/kg and the bioavailability ([1]; oral 2 mg/kg) was 57%. For the same molecule, the half-life ([1]; IV 1.0 mg/kg, read-out: t½ (converted)) was 2.3 ± 1.3 h, the IC50 ([2]; 48 h, read-out: Persistence assay IC50B, PBMCs) was 18.1 ± 4.8 nM and the IC50 ([2]; read-out: Persistence assay IC50A, PBMCs) was 1.2 ± 0.2 nM. For the same molecule, the concentration at 72 h ([3]; monkeys, oral 50 mg/kg, 0.25 hr, listed as MK-8527, 50 mg/kg, read-out: Concentration in plasma, individual subjects) was 7.22 µM and 1.93 µM and 8.67 µM, the concentration at 72 h ([3]; monkeys, oral 50 mg/kg, 0.5 hr, listed as MK-8527, 50 mg/kg, read-out: Concentration in plasma, individual subjects) was 11.00 µM and 4.12 µM and 11.10 µM and the concentration at 72 h ([3]; monkeys, oral 50 mg/kg, 1 hr, listed as MK-8527, 50 mg/kg, read-out: Concentration in plasma, individual subjects) was 29.80 µM and 7.40 µM and 20.20 µM. The concentration at 72 h ([3]; monkeys, oral 50 mg/kg, 2 hr, listed as MK-8527, 50 mg/kg, read-out: Concentration in plasma, individual subjects) was 30.50 µM and 11.00 µM and 27.80 µM, the concentration at 72 h ([3]; monkeys, oral 50 mg/kg, 4 hr, listed as MK-8527, 50 mg/kg, read-out: Concentration in plasma, individual subjects) was 15.20 µM and 15.40 µM and the concentration at 72 h ([3]; monkeys, oral 50 mg/kg, 6 hr, listed as MK-8527, 50 mg/kg, read-out: Concentration in plasma, individual subjects) was 14.30 µM and 9.31 µM. For the same molecule, the concentration at 72 h ([3]; monkeys, oral 50 mg/kg, 24 hr, listed as MK-8527, 50 mg/kg, read-out: Concentration in plasma, individual subjects) was 1.81 µM and 1.27 µM, the concentration at 72 h ([3]; monkeys, oral 50 mg/kg, 30 hr, listed as MK-8527, 50 mg/kg, read-out: Concentration in plasma, individual subjects) was 0.81 µM and 0.58 µM and the concentration at 72 h ([3]; monkeys, oral 50 mg/kg, 48 hr, listed as MK-8527, 50 mg/kg, read-out: Concentration in plasma, individual subjects) was 0.31 µM and 0.26 µM and 0.13 µM. The concentration at 72 h ([3]; monkeys, oral 50 mg/kg, 72 hr, listed as MK-8527, 50 mg/kg, read-out: Concentration in plasma, individual subjects) was 0.07 µM and 0.05 µM, the concentration at 72 h ([3]; monkeys, oral 50 mg/kg, 168 hr, listed as MK-8527, 50 mg/kg, read-out: Concentration in plasma, individual subjects) was 0.0143 µM and 0.0113 µM and 0.00651 µM and the half-life ([3]; rhesus monkey, plasma, iv, 0.5 mg/kg, monkey, plasma, IV 0.5 mg/kg, read-out: t½ (converted)) was about 7 h. For the same molecule, the concentration at 0.25 h ([3]; rhesus monkey, plasma, po, 50 mg/kg, monkeys, oral 50 mg/kg, 0.25 hr, read-out: Arithmetic Mean Concentration in plasma) was 4.94 µM, the concentration at 0.5 h ([3]; rhesus monkey, plasma, po, 50 mg/kg, monkeys, oral 50 mg/kg, 0.5 hr, read-out: Arithmetic Mean Concentration in plasma) was 7.95 µM and the concentration at 1 h ([3]; rhesus monkey, plasma, po, 50 mg/kg, monkeys, oral 50 mg/kg, 1 hr, read-out: Arithmetic Mean Concentration in plasma) was 16.4 µM. The concentration at 30 h ([3]; rhesus monkey, plasma, po, 50 mg/kg, monkeys, oral 50 mg/kg, 30 hr, read-out: Arithmetic Mean Concentration in plasma) was 0.79 µM, the concentration at 30 h ([3]; rhesus monkey, plasma, po, 50 mg/kg, monkeys, oral 50 mg/kg, 30 hr, read-out: Concentration in plasma, individual subjects) was 1.04 µM and the concentration at 48 h ([3]; rhesus monkey, plasma, po, 50 mg/kg, monkeys, oral 50 mg/kg, 48 hr, read-out: Arithmetic Mean Concentration in plasma) was 0.22 µM. The concentration at 72 h ([3]; rhesus monkey, plasma, po, 50 mg/kg, monkeys, oral 50 mg/kg, 72 hr, read-out: Arithmetic Mean Concentration in plasma) was 0.07 µM, the concentration at 72 h ([3]; rhesus monkey, plasma, po, 50 mg/kg, monkeys, oral 50 mg/kg, 72 hr, read-out: Concentration in plasma, individual subjects) was 0.09 µM and the concentration at 168 h ([3]; rhesus monkey, plasma, po, 50 mg/kg, monkeys, oral 50 mg/kg, 168 hr, read-out: Arithmetic Mean Concentration in plasma) was 0.01 µM. The clearance ([3]; rhesus monkey, plasma, monkey, IV 0.5 mg/kg, read-out: CLp) was 12.6 ± 3.3 mL/min/kg, the Vd ([3]; rhesus monkey, plasma, monkey, IV 0.5 mg/kg, read-out: Vdss) was 4.4 ± 0.8 L/kg and the bioavailability ([3]; rhesus monkey, plasma, monkey, oral 1 mg/kg) was 100%. For the same molecule, the concentration at 2 h ([3]; rhesus, rhesus monkey, plasma, po, 50 mg/kg, monkeys, oral 50 mg/kg, 2 hr, read-out: Arithmetic Mean Concentration in plasma) was 21.1 µM, the concentration at 4 h ([3]; rhesus, rhesus monkey, plasma, po, 50 mg/kg, monkeys, oral 50 mg/kg, 4 hr, read-out: Arithmetic Mean Concentration in plasma) was 15.8 µM and the concentration at 4 h ([3]; rhesus, rhesus monkey, plasma, po, 50 mg/kg, monkeys, oral 50 mg/kg, 4 hr, read-out: Concentration in plasma, individual subjects) was 16.9 µM. It also gave a concentration at 6 h ([3]; rhesus, rhesus monkey, plasma, po, 50 mg/kg, monkeys, oral 50 mg/kg, 6 hr, read-out: Arithmetic Mean Concentration in plasma) of 11 µM, a concentration at 6 h ([3]; rhesus, rhesus monkey, plasma, po, 50 mg/kg, monkeys, oral 50 mg/kg, 6 hr, read-out: Concentration in plasma, individual subjects) of 10.1 µM and a concentration at 24 h ([3]; rhesus, rhesus monkey, plasma, po, 50 mg/kg, monkeys, oral 50 mg/kg, 24 hr, read-out: Arithmetic Mean Concentration in plasma) of 1.75 µM. It also gave a concentration at 24 h ([3]; rhesus, rhesus monkey, plasma, po, 50 mg/kg, monkeys, oral 50 mg/kg, 24 hr, read-out: Concentration in plasma, individual subjects) of 2.34 µM.
